# According to publication PMC2625307 (Journal of molecular biology, 2008):
# How the values were obtained:
# [1] = target: HXBc2 gp120 (Human immunodeficiency virus type 1 group M subtype B, UniProt P04578); assay: Surface-plasmon resonance binding, HXBc2 gp120; design: species or system HIV-1
# [2] = target: T1, YU2 gp120 (Human immunodeficiency virus type 1 group M subtype B, UniProt P35961); assay: Surface-plasmon resonance binding, YU2 gp120; design: species or system HIV-1
# [3] = system: MN-25; format: cell-based, HIV-1 group M; settings: JC53BL-13 cells, genetic distance to HXBc2 0.17951
# [4] = system: BaL; format: cell-based, HIV-1 group M; settings: PM1 cells, genetic distance to HXBc2 0.13532
# [5] = target: T1, YU2 gp120; assay: Contact surface area of gp120, YU2; design: species or system HIV-1
# [6] = system: GAB-2 62 fl; format: cell-based, SIVcpz (P.t.t); settings: JC53BL-13 cells, genetic distance to HXBc2 0.47819
# [7] = system: NL4.3 env; format: cell-based, HIV-1 group M; settings: JC53BL-13 cells, genetic distance to HXBc2 0.05769
# [8] = target: T1, YU2 gp120; design: species or system HIV-1; settings: vs other mimetics
# [9] = system: YU-2 env; format: cell-based, HIV-1 group M; settings: JC53BL-13 cells, genetic distance to HXBc2 0.16766
# [10] = system: HIV-1 gp120; settings: vs biphenyl counterpart (CD4M33, CD4M47)
# [11] = system: GAB-1 fl; format: cell-based, SIVcpz (P.t.t); settings: JC53BL-13 cells, genetic distance to HXBc2 0.43711
# [12] = system: IIIB; format: cell-based, HIV-1 group M; settings: PM1 cells, genetic distance to HXBc2 0.03060
smiles,measurement,setting,value
CC(C)C[C@@H]1NC(=O)CNC(=O)[C@H](CC(C)C)NC(=O)[C@H](CO)NC(=O)[C@H](CCCCN)NC(=O)[C@@H]2CSSC[C@@H](C(=O)N[C@H](C(N)=O)C(C)C)NC(=O)[C@H](C)NC(=O)[C@@H]3CSSC[C@H](NC(=O)[C@H](Cc4ccccc4)NC(=O)[C@H](Cc4c[nH]cn4)NC(=O)[C@H](CC(C)C)NC(=O)[C@H](CC(N)=O)NC(=O)CCSSC[C@H](NC(=O)[C@H](CCCCN)NC(=O)CNC(=O)[C@H](CC(C)C)NC1=O)C(=O)N[C@@H](C)C(=O)NCC(=O)N[C@@H](CO)C(=O)N[C@@H](Cc1ccccc1)C(=O)N3)C(=O)N[C@@H](CCC(N)=O)C(=O)N[C@@H](CC(C)C)C(=O)N[C@@H](CCCNC(=N)N)C(=O)N2 [[Phe^23]M33],Kd,[1],18.9 ± 0.14 nM
same,Kd,[2],35.1 ± 0.18 nM
same,IC50,[3],3.6 µM
same,IC50,[4],200 nM
same,"Contact surface area of gp120, total",[5]; asymmetric unit molecule (1),363.8 Å^2
same,"Contact surface area of gp120, total",[5]; asymmetric unit molecule (2),398.0 Å^2
same,IC50,[6],1000 nM
same,IC50,[7],13 nM
same,similarity of induced gp120 conformation to that induced by CD4,[8],the closest mimic to CD4
same,IC50,[9],1000 nM
same,on-rate compared with biphenyl counterpart,[10],about half as fast
same,IC50,[11],350 nM
same,IC50,[12],260 nM
